Experimental data published in paper PMC12548382, “Discovery of a potent covalent inhibitor that unusually distorts the catalytic dyad of SARS-CoV-2 main protease” (Journal of Virology, 2025).

Legend:
SARS-CoV-2 = SARS-CoV-2 viral load reduction assay in VeroE6 cells; assay type: cell-based; settings: 10 µM, MOI 0.1, 48 hpi, qRT-PCR of supernatant
Protocol: Fig 3 In vitro antiviral activity of selected compounds. VeroE6 cells were infected with SARS-CoV-2 (multiplicity of infection [MOI] of 0.1) and treated with various concentrations of H102, PF-07321332, GC376, or vehicle control. Viral RNA load in the cell culture supernatant samples was quantified by qRT-PCR. All experiments were performed in triplicate, and the values are presented as mean ± SD. P-values were calculated using Student’s t-test to compare each compound candidate with vehicle control. *P < 0.05.
Viral load reduction assay was performed for the evaluation of antiviral activity as we described previously ([34]). Briefly, SARS-CoV-2-infected VeroE6 cells were treated with different concentrations of compounds or dimethyl sulfoxide (DMSO) control. Then, cell culture supernatant samples were collected at 48 h post-inoculation (hpi) for qRT-PCR analysis of viral RNA load. Culture supernatant was lysed with buffer AVL and then extracted for total RNA with the QIAamp viral RNA mini kit (Qiagen). qRT-PCR was used for quantitation of SARS-CoV-2 viral load using the QuantiNova Probe RT-PCR kit (Qiagen) with a LightCycler 480 Real-Time PCR System (Roche). […]

SARS-CoV-2 M^pro = SARS-CoV-2 M^pro (Severe acute respiratory syndrome coronavirus 2, UniProt P0DTD1); experiment: SARS-CoV-2 M^pro enzyme inhibition assay (FRET substrate); assay type: biochemical; settings: for IC50: 150 nM enzyme, 30 min preincubation, 25 µM substrate, mean ± SD
SARS-CoV M^pro = SARS-CoV M^pro ref 27; cited from earlier work

## CC(C)C[C@H](NC(=O)OCc1ccccc1)C(=O)N[C@@H](C[C@@H]1CCNC1=O)C(O)S(=O)(=O)[O-].[Na+] (some centres unmarked) [GC376]
SARS-CoV-2
  reduction in viral RNA load: 3.93 log10

## COc1ccc(C[C@H](NC(=O)[C@H](C)NC(=O)OC(C)(C)C)C(=O)N[C@@H](C[C@@H]2CCNC2=O)C(=O)C(=O)Nc2cccc(C(C)=O)c2)cc1 [H94]
SARS-CoV-2 M^pro
  IC50: 24.8 ± 2.3 µM

## COc1ccc(C[C@H](NC(=O)[C@H](C)NC(=O)c2cnc(-c3ccc(C(C)=O)cc3)s2)C(=O)N[C@@H](C[C@@H]2CCNC2=O)C(=O)C(=O)Nc2cccc(C(C)=O)c2)cc1 [H96]
SARS-CoV-2 M^pro
  IC50: 9.4 ± 3 µM
SARS-CoV-2 M^pro; vs compound 17
  increase in M^pro inhibitory potency compared to compound 17: > 10 fold

## COc1ccc(C[C@H](NC(=O)[C@@H](NC(=O)OC(C)(C)C)C(C)(C)C)C(=O)N[C@@H](C[C@@H]2CCNC2=O)C(=O)C(=O)Nc2cccc(C(C)=O)c2)cc1 [H97]
SARS-CoV-2 M^pro
  IC50: 6.3 ± 2.7 µM

## COc1ccc(C[C@H](NC(=O)[C@@H](NC(=O)OC(C)(C)C)C(C)C)C(=O)N[C@@H](C[C@@H]2CCNC2=O)C(=O)C(=O)Nc2cccc(C(C)=O)c2)cc1 [H98]
SARS-CoV-2 M^pro
  IC50: 8.7 ± 2.5 µM

## COc1ccc(C[C@H](NC(=O)[C@H](CC(C)C)NC(=O)OC(C)(C)C)C(=O)N[C@@H](C[C@@H]2CCNC2=O)C(=O)C(=O)Nc2cccc(C(C)=O)c2)cc1 [H99]
SARS-CoV-2 M^pro
  IC50: 9.9 ± 4.7 µM

## CC(=O)c1cccc(NC(=O)C(=O)[C@H](C[C@@H]2CCNC2=O)NC(=O)[C@H](CC(C)C)NC(=O)[C@@H](NC(=O)OC(C)(C)C)C(C)(C)C)c1 [H101]
SARS-CoV-2 M^pro
  IC50: 3.8 ± 0.4 µM

## COC[C@H](NC(=O)OC(C)(C)C)C(=O)N[C@@H](Cc1ccc(OC)cc1)C(=O)N[C@@H](C[C@@H]1CCNC1=O)C(=O)C(=O)Nc1cccc(C(C)=O)c1 [H137]
SARS-CoV-2 M^pro
  IC50: 28.9 ± 3.8 µM

## CC(C)(C)[C@H](NC(=O)C(F)(F)F)C(=O)N1C[C@H]2[C@@H]([C@H]1C(=O)N[C@H](C#N)C[C@@H]1CCNC1=O)C2(C)C [PF-07321332, Nirmatrelvir]
SARS-CoV-2
  reduction in viral RNA load: 3.48 log10

## COC(=O)[C@H](C[C@@H]1CCNC1=O)NC(=O)OC(C)(C)C [compound 3]
SARS-CoV M^pro
  IC50: 0.3 µM
